Measurements published in article PMC10094418, “Butein Inhibits Cell Growth by Blocking the IL-6/IL-6Rα Interaction in Human Ovarian Cancer and by Regulation of the IL-6/STAT3/FoxO3a Pathway” (International Journal of Molecular Sciences, 2023).

Assays:
A2780 xenograft tumors = test: A2780 mouse xenograft; assay type: in vivo, BALB/c nude mice
Procedure: Adult BALB/c nude mice aged 5 weeks (n = 5, body weight 17−19 g) were purchased from Orient Bio (Seongnam, Republic of Korea) and reared in aseptic conditions with 55 ± 10% humidity and 25 ± 2 °C temperature under a 12 h/12 h light-dark cycle (Catholic University protocol). All animal experimental work was carried out in compliance with the legal obligations and federal guidelines and legal obligations for the care and maintenance of laboratory animals. All animal experiments were conducted with the approval of the Institutional Animal Care and Use Committee of the Catholic University of Korea (approval number: CUK-IACUC-2019-026-01). A2780 cell suspension (1 × 10^7 cells/200 μL in 1 × PBS) was injected subcutaneously into the dorsal scapula area of each mouse. The tumor developed 14 days after implantation to a size of approximately 150 mm^3. The mice were then divided randomly into vehicle control (5% DMSO), siltuximab (10 mg/kg), and butein (2 or 4 mg/kg) groups. All drugs were dissolved in 0.05% carboxymethylcellulose sodium salt (CMC) (Sigma-Aldrich, St. Louis, MO, USA) and injected intraperitoneally five times a week for three weeks. The tumor size was measured using calipers once every 2 days. The tumor volume was calculated using a simplified equation (length × width^2 × 0.5). Each tumor was harvested 22 days post-treatment.

[1] = test system: STAT3 phosphorylation in A2780 cells; test: Western blotting of STAT3 phosphorylation, A2780; assay type: cell-based, human; details: relative to IL-6 treated cells
Procedure: After each drug treatment of the cells, the cells were dissolved in 100 μL of radioimmunoprecipitation assay (RIPA) buffer (Thermo Fisher Scientific Inc., Waltham, MA, USA) and centrifuged to separate the supernatant containing protein. Isolated protein concentrations were measured using the Pierce BCA Protein Assay Kit (Thermo Fisher Scientific Inc., Waltham, MA, USA). Aliquots of proteins quantified at […] were boiled at 100 °C in 5× sample buffer, separated on a 12% SDS-polyacrylamide gel and electrophoresed onto polyvinylidene difluoride (PDVF) membranes (Millipore, Billerica, MA, USA). The PDVF membranes were blocked for 1 h at 25 °C with 5% BSA in 1× tris buffered saline containing 0.05% Tween20 (TBST) (Sigma-Aldrich, St. Louis, MO, USA). The membrane was incubated in the primary antibody at 4 °C overnight. PDVF membranes were washed with 1× TBST and incubated with AffiniPure goat anti-rabbit IgG secondary antibody (Jackson Immunoresearch, West Grove, PA, USA) for 1 h at room temperature. After washing again with TBST buffer, enhanced signals were detected using the SuperSignal™ West Femto Maximum Sensitivity Substrate kit (cat.no. 34094, Thermo Scientific, Rockford, IL, USA). The blot was imaged using the ChemiDoc imaging system (Bio-Rad, Herles, CA, USA), and protein expression was quantified with the ImageJ software (v1.8.0).

A2780 cells [2] = test: Flow cytometric cell cycle analysis (PI), A2780; assay type: cell-based, human; details: 25 μM; 45.3% under control conditions
Procedure: A2780 and SKOV3 cell lines were treated with control (siltuximab 10 μM) and butein (5, 10, and 25 μM). After 6 h, the cells were fixed with 70% ethanol for cell cycle analysis and stained with propidium iodide (PI). Cell death was analyzed using the FITC Annexin V Apoptosis Detection kit with 7-AAD (Cat.no. 640922, BioLegend, San Diego, CA, USA). Cells were sorted using a FACS Canto II (BD Biosciences, Franklin Lakes, NJ, USA) and cell cycle and apoptosis were analyzed using BD FACS Diva software version 6. 2. Analysis (BD Biosciences, Franklin Lakes, NJ, USA) was performed in triplicate.

IL-6/IL-6Rα interaction = target: T1, IL-6/IL-6Rα interaction (Homo sapiens, UniProt P05231); test: ELISA of the IL-6/IL-6Rα interaction; assay type: binding; details: at 20 μM
T1 construct: purchased BioLegend (IL-6); Acro biosystems (IL-6Ra) 570806 (IL-6); ILR-H5259 (IL-6Ra)
Procedure: An amount of 0.5 μg/mL rhIL-6 protein (Cat.no.570806, BioLegend) was coated onto 96-well ELISA plates at 4 °C overnight, and then the plates were washed with PBST (1 × PBS containing 0.05% Tween-20), followed by the addition of PBSA (1 × PBS containing 1% bovine serum albumin (BSA)) (Bovogen, East Keilor, Australia) for 1 h at room temperature. After blocking, the FDA-approved compounds (20 uM) (Cat.no. L-1300, Selleckchem, Houston, TX, USA) were incubated for 2 h at room temperature. After washing three times with PBST, 0.2 μg/mL recombinant IL-6Ra protein (Cat.no.ILR-H5259, Acro biosystems, Newark, DE, USA) was added to the plates, which were incubated for 1 h. After washing three times with PBST, HRP-conjugated goat anti-human IgG Ab (Cat.no. 10-035-098, Jackson Immno, Hatfield, West Grove, PA, USA) was added to the plates and incubated for 1 h. After washing three times with PBST, TMB solution (Cat.no.11684302001, Roche, Mannheim, Germany) was added to the plates and incubated for 15 min. Then, stop solution (2N HCl) was added to the plates. The absorbance was measured at 450 nm using the Epoch microplate spectrophotometer (BioTek instruments, Winooski, VT, USA).

A2780 cells [3] = test: Clonogenic formation assay, A2780; assay type: cell-based, human; details: compared with control siltuximab-treated cells
Procedure: A2780 and SKOV3 cell lines were seeded at approximately 5000 cells/well in 24-well plates. Butein was added to the cell medium at various concentrations (5, 10, and 25 μM) together with control siltuximab (CTNO328; EUSA Pharma, Inc., Hemel Hempstead, UK) for 12 h. After 2 weeks, the colonies formed were fixed with fixer buffer, stained with crystal violet, and imaged with a ChemiDoc imaging system (Bio-Rad, Herles, CA, USA).

T1 sequence (P05231 30-212): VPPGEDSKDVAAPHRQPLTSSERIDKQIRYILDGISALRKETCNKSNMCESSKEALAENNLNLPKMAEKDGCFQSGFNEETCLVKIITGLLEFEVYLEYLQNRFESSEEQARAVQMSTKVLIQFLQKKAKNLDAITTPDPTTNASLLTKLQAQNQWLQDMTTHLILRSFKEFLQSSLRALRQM

Total mouse weight (A2780 xenograft tumors; during the experimental period): no difference
Reduction of the interaction between IL-6 and IL-6Rα (IL-6/IL-6Rα interaction): 21.7%
SMILES: O=C(/C=C/c1ccc(O)c(O)c1)c1ccc(O)cc1O [butein]
Tumor growth (A2780 xenograft tumors; 2 or 4 mg/kg i.p. five times a week, vs vehicle and siltuximab-treated group): significant inhibition
Phosphorylation of STAT3, A2780 [1]: inhibited in a concentration-dependent manner
A2780 cells in G1-phase (A2780 cells [2]): 55.9%
Clonogenicity, A2780 (A2780 cells [3]): significantly inhibited
